We go through one compound from patent US20110182992A1, “PEPTIDES AND PEPTIDE MIMETICS TO TREAT PATHOLOGIES ASSOCIATED WITH EYE DISEASE” (priority 2008, published 2011).

The conditions of series [1]: in vivo; cited from earlier work.
The next series concerns LDL receptor null mice. Put plainly: HDL protective capacity in LDL receptor null mice given peptide in drinking water. In kind it is in vivo. The note with it: 0.25 or 0.5 mg per ml of drinking water, 24 or 48 hrs, mouse HDL at 100 μg/ml. As for the experimental part:
FIG. 3 illustrates the effect of apo J peptide mimetics on HDL protective capacity in LDL receptor null mice. The values are the mean±SD of the number of migrated monocytes in 9 high power fields from each of quadruple assay wells.
D-4F designated as F, or the apoJ peptide made from D amino acids (D-J336, designated as J) was added to the drinking water of LDL receptor null mice (4 per group) at 0.25 or 0.5 mg per ml of drinking water. After 24- or 48-hrs blood was collected from the mice and their HDL was isolated and tested for its ability to protect against LDL-induced monocyte chemotactic activity. Assay controls included culture wells that received no lipoproteins (no addition), or control human LDL alone (designated as LDL, 200µg cholesterol/ml), or control LDL+ control human HDL (designated as +HDL, 350µg HDL cholesterol). For testing the mouse HDL, the control LDL was added together with mouse HDL (+F HDL or +J HDL) to artery wall cell cultures. The mouse HDL was added at 100 μg cholesterol/ml respectively.

The test system of series [2] is ApoE null mice. Put plainly: Protection against LDL-induced monocyte chemotactic activity by HDL from apo E null mice given oral peptides. In kind it is in vivo, mouse. Particulars: ApoE null mice, peptide in drinking water 24 hrs; murine HDL at 100 μg/ml. The text has this:
FIG. 4 illustrates protection against LDL-induced monocyte chemotactic activity by HDL from apo E null mice given oral peptides. The values are the mean±SD of the number of migrated monocytes in 9 high power fields from each of quadruple assay wells. Asterisks indicate significant difference (p<0.05) as compared to No Peptide mHDL.
After 24 hrs blood was collected, plasma fractionated by FPLC and fractions containing LDL (designated as mLDL for murine LDL) and fractions containing HDL (designated as mHDL) were separately pooled and HDL protective capacity against LDL oxidation as determined by LDL-induced monocyte chemotactic activity was determined. For the assay controls the culture wells received no lipoproteins (no additions), mLDL alone (at 200 μg cholesterol/ml), or mLDL+ standard normal human HDL (designated as Cont. h HDL, at 350 μg HDL cholesterol/ml).
For testing the murine HDL, mLDL together with murine HDL (+F mHDL or +J mHDL) were added to artery wall cell cultures. […] The murine HDL was used at 100µg cholesterol/ml.

Series [3] deals with ApoE null mice. Put plainly: Trabecular bone mineral density, peptide in drinking water. Particulars: drinking water for 6 weeks. In kind it is in vivo, mouse.
For series [4] the following is noted: mouse, in vivo.
In series [5] the test system is ApoE null mice. Nature of the series: HDL and pre-beta HDL from apoE null mice fed solution-phase synthesized D-4F: inhibition of LDL-induced monocyte chemotaxis. In kind it is in vivo, mouse. Particulars: ApoE null mice fed 5 micrograms in chow, bled after twelve hours; product of solution phase synthesis. The source says:
ApoE null mice were fed 5 micrograms of the D-4F synthesized as described above (Frgmnt) or the mice were given the same amount of mouse chow without D-4F (Chow). Twelve hours after the feeding was started, the mice were bled and their plasma was fractionated on FPLC.

Another series concerns Obese Zucker rats. Nature of the series: Plasma glucose and lipid hydroperoxides (LOOH) in obese Zucker rats. In kind it is in vivo, rat. The note with it: Obese Zucker rats 26 weeks of age, 5.0 mg/kg/day intraperitoneal, 10 days. On the procedure:
Obese Zucker rats 26 weeks of age were bled and then treated with daily intraperitoneal injections of D-4F (5.0 mg/kg/day). After 10 days the rats were bled again plasma glucose and lipid hydroperoxides (LOOH) were determined. *p=0.027; **p=0.0017.

In series [6] the test system is ApoE null mice. Nature of the series: HDL Inflammatory Index, D-4F versus Reverse D-4F by stomach tube. Particulars: apoE null mice, 0, 3, 6, 12 or 25 micrograms by stomach tube, blood 7 hours later. In kind it is in vivo, mouse. As for the experimental part: Female apoE null mice were administered by stomach tube 0, 3, 6, 12, or 25 micrograms of D-4F or Reverse D-4F in 100 microliters of water. Blood was obtained 7 hours later and the plasma was fractionated by FPLC. A standard control human LDL was added to human artery wall cells at a concentration of 100 micrograms of LDL-cholesterol/mL (LDL). The resulting monocyte chemotactic activity was normalized to 1.0. […] The resulting monocyte chemotactic activity was normalized to that of the LDL added without HDL. The resulting value is the HDL Inflammatory Index. The results shown are the Mean±S.D. for the data from three separate experiments.

Series [7] has as its system ApoE null mice. Put plainly: HDL function after D-4F and/or statin in the drinking water. In kind it is in vivo, mouse. Particulars: 1 μg/ml in the drinking water for 24 hours.

For `CC(=O)N[C@H](CC(=O)O)C(=O)N[C@H](Cc1c[nH]c2ccccc12)C(=O)N[C@H](Cc1ccccc1)C(=O)N[C@H](CCCCN)C(=O)N[C@H](C)C(=O)N[C@H](Cc1ccccc1)C(=O)N[C@H](Cc1ccc(O)cc1)C(=O)N[C@H](CC(=O)O)C(=O)N[C@H](CCCCN)C(=O)N[C@@H](C(=O)N[C@H](C)C(=O)N[C@H](CCC(=O)O)C(=O)N[C@H](CCCCN)C(=O)N[C@H](Cc1ccccc1)C(=O)N[C@H](CCCCN)C(=O)N[C@H](CCC(=O)O)C(=O)N[C@H](C)C(=O)N[C@H](Cc1ccccc1)C(N)=O)C(C)C` [Peptide D-4F, Ac-D-W-F-K-A-F-Y-D-K-V-A-E-K-F-K-E-A-F-NH2], in series [1], the side effects entry was “no side effects”. The “activity of mouse HDL in preventing control LDL from inducing artery wall cells to produce monocyte chemotactic activity” value in the series with LDL receptor null mice is “as active as 350 μg/ml of control human HDL”. For the same compound, the “activity of murine HDL against LDL-induced monocyte chemotactic activity” value in the series on ApoE null mice [2] was “as active as 350µg/ml of normal human HDL”. Moreover, the “trabecular bone mineral density” value in the series on ApoE null mice [3] is recorded as “dramatically increased trabecular bone mineral density”. Besides, in series [4], the “association with pre-beta HDL and HDL” value was “rapidly associates with pre-beta HDL and HDL”. In series [4] (po), the “time after an oral dose at which essentially non-detectable in the circulation” value is 6 h. The “biological activity in producing HDL and pre-beta HDL that inhibit LDL-induced monocyte chemotaxis” value with ApoE null mice [5] is “very biologically active in producing HDL and pre-beta HDL that inhibit LDL-induced monocyte chemotaxis”. In the series with Obese Zucker rats, the “mitigation of symptoms of diabetes (plasma glucose, lipid hydroperoxides)” value is listed as “effective in mitigating symptoms of diabetes”. Moreover, the “biological activities (HDL Inflammatory Index), D-4F versus Reverse D-4F” value in the series on ApoE null mice [6] is given as “not significantly different”. The “HDL function, D-4F alone” value with ApoE null mice [7] is “did not significantly improve HDL function”.
